Measurements reported in patent publication US20030211075A1 (priority 2001, published 2003).

Assays:
[1] = system: C1300 mouse neuroblastoma; assay: In vivo tumor thrombosis, C1300
Excerpt: (§1) Tumor test systems were of four types: i) 3LL mouse lung carcinoma growing subcutaneously in C57BL/6 mice; ii) C1300 mouse neuroblastoma growing subcutaneously in BALB/c nu/nu mice; iii) HT29 human colorectal carcinoma growing subcutaneously in BALB/c nu/nu mice; and iv) C1300 Muγ mouse neuroblastoma growing subcutaneously in BALB/c nu/nu mice. The C1300 Muγ tumor is an interferon-y secreting transfectant derived from the C 1300 tumor (Watanabe et al., 1989).
(§2) To establish tumors, 10^6 to 1.5×10^7 tumor cells were injected subcutaneously into the right anterior flank of the mice. When tumors had grown to various sizes, mice were randomly assigned to different study groups. […] Fab′, or bispecific antibody. Other mice received equivalent quantities IgG, Fab′ or bispecific antibody alone. The injections were performed slowly into one of the tail veins over approximately 45 seconds, usually followed by 200 μl of saline.
(§3) Twenty-four hours after being injected with tTF or immunoglobulin-tTF conjugates, the mice were anesthetized with metophane and were exsanguinated by perfusion with heparinized saline. Tumors and normal tissues were excised and immediately fixed in 3% (v/v) formalin. Paraffin sections were cut and stained with hematoxylin and eosin. Blood vessels having open lumens containing erythrocytes and blood vessels containing thrombi were counted. […]

3LL mouse lung carcinoma = assay: In vivo tumor thrombosis, 3LL; conditions: large (>800 mm^3) tumors
Excerpt: as §1, §2, §3

tTF: extracellular domain of the mature Tissue Factor protein (amino acid 1-219), recombinant truncated human Tissue Factor
thrombosis of tumor vessels ([1]; large tumors (>1000 mm^3), 24 hours after injection): virtually all vessels were thrombosed
effect on tumor vessels ([1]; small (<500 mm^3) tumors): largely unaffected
tumor vessels thrombosed, average (3LL mouse lung carcinoma): 62%
